Measurements as given in patent US20110200618A1, “ERBB4 INHIBITORS AND USES THEREOF IN TREATMENT OF NEUROPSYCHIATRIC DISORDERS” (priority 2008, published 2011).

Assays:
Type in all cases: cell-based
[1] = tested on: NRG1 induced ERK activation; test: NRG1 induced ERK activation in human olfactory epithelial (hOE) cultures, western blot; details: healthy person, inhibitors 20 min, then 100 ng/ml NRG1 10 min, 10 μM U0126, 10 nM wortmannin, 100 nM K-252, 2.5 μM AG1478, 1 μM AG879
Procedure: Protein extracts were analyzed for the expression of p-ERK and glyeraldehyde 3-dehydrogenase (GAPDH). U, 10 μM of U0126: W, 10 nM of wortmannin: K, 100 nM K-252, 2.5 μM of AG1478 and 1 μM of AG879;
Protein extracts were analyzed for the expression of p-ERK and glyceraldehyde 3-dehydrogenase (GAPDH). (A) A representative western blotting (B) p-ERK intensities were normalized with respect to GAPDH, which were then used to calculate percent inhibition.
As an internal control experiment, the cells were also incubated with inhibitors for ERK, AKT or trkb activation, U0126, wortmannin or K-252 respectively.

activation of AKT = test: NRG1 stimulation of post-mortem mouse brain tissues after 60 min pre-incubation, AKT activation; details: post-mortem mouse brain tissue slices, GSK compound at 10 μM, 100 ng/ml NRG1
activation of ERK = test: NRG1 stimulation of post-mortem mouse brain tissues after 60 min pre-incubation, ERK activation; details: post-mortem mouse brain tissue slices, GSK compound at 10 μM, 100 ng/ml NRG1, vehicle control also failed to respond to NRG1
Procedure: Protein extracts were analyzed for the expression of p-ERK;
To enhance the permeability of the inhibitors, tissue slices were pre-incubated with the inhibitors for 60 min before added with NRG1.

[2] = tested on: NRG1 induced ERK activation; test: NRG1 stimulation of post-mortem human prefrontal cortex tissues, ERK activation; details: post-mortem PFC of healthy control; 2.5 μM AG1478 pre-incubated 15 min, 100 ng/ml NRG1
Procedure: NRG1 stimulation of human post-mortem PFC. 100 mg of post-mortem brain tissues of a healthy control subject were incubated with or without 100 ng/ml of NRG1 in the presence or absence of 2.5 μM AG1478. Protein extracts were analyzed for p-ERK and ERK;
Protein extracts were analyzed for the expression of ERK, AKT and GSK and their phosphorylated counterparts;
erbB stimulation/inhibition experiment wastested in post-mortem brain tissues. FIG. 2 represents an experiment, in which the PFC of a healthy control subject was stimulated with NRG1 in the presence of AG1478. In this experiment, the tissues were incubated with the inhibitor for 15 min before added with 100 ng/ml of NRG1.
GSK1495829A was tested in post-mortem mouse and human brain tissues. FIG. 4 represents an experiment, in which the PFC tissues of a healthy control subject were pre-incubated with varied concentrations of the inhibitor for 15 min before the ligand stimulation with 100 ng/ml of NRG1. […] One possible explanation could be that the brain tissues are less permeable to the inhibitors than OE culture cells.

CC(C)(C)c1cc(C=C(C#N)C(N)=S)cc(C(C)(C)C)c1O [AG 879, α-Cyano-(3,5-di-t-butyl-4-hydroxy)thiocinnamide]
NRG1 induced p-ERK with respect to GAPDH [1]: attenuated

COc1cc2ncnc(Nc3cccc(Cl)c3)c2cc1OC [AG 1478, 4-(3-Chloroanilino)-6,7-dimethoxyquinazoline]
NRG1 induced p-ERK with respect to GAPDH [1]: attenuated
activation of AKT (activation of AKT): did not reduce
activation of ERK (activation of ERK): did not reduce
NRG1 induced ERK activation (ratio p-ERK to ERK) [2]: significantly reduced

N#CC(=C(/N)Sc1ccccc1N)/C(C#N)=C(\N)Sc1ccccc1N [U0126]
NRG1 induced p-ERK with respect to GAPDH [1]: significantly reduced
